Experimental data: patent US20260263618A1, “LIPID NANOPARTICLE FORMULATIONS AND COMPOSITIONS” (CAPSTAN THERAPEUTICS, INC., priority 2023, published 2026)

What was measured:
[1] = Time course of ionizable cationic lipid in plasma, spleen and liver of mice, LC-MS; format: in vivo; details: for plasma levels of lipid at 7 days: 2 mg/kg tLNP (F9 or BF1) targeted to mouse CD8, FIG. 13C
Experimental: To obtain more detailed data a similar experiment was conducted in mice where it was possible to obtain a time course of disappearance of the ionizable cationic lipid and the encapsulated mRNA as well. Mice were intravenously administered 2 mg/kg tLNP of composition BF1 (comprising ALC-0315) or F9 (comprising CICL1) targeted to mouse CD8 and encapsulating an anti-human CD19 CAR, and monitored through 7 days. At each timepoint, 3 mice were sacrificed, and liver, spleen, and plasma were processed for LC-MS-based detection of lipid concentration and digital PCR detection of the mRNA. In plasma, mRNA level was normalized to a known amount of mRNA spiked in a control. In spleen and liver mRNA level was normalized to mRNA for the housekeeping gene GAPDH.

[2] = Ionizable cationic lipid in plasma, liver and spleen of NHP 24 hours after tLNP, LC/MS/MS; format: in vivo, cynomolgus macaques
Experimental: Samples were taken from cynomolgus macaques that had been intravenously administered either BF1 or F5 tLNPs (two each) at a dosage of 3 mg mRNA/kg in the preceding example. The tLNPs were conjugated to anti-C05 mentioned in Example 2 as the targeting moiety. 24 hours after administration the animals were sacrificed and plasma, liver, and spleen tissue collected from two animals in each group and assessed by mass spectrometry for presence of these ionizable cationic lipids in order to assess biodegradability and biodistribution of these ionizable cationic lipids.
Briefly, plasma was stabilized for mass spectrometry by addition of 10 μL of formic acid per mL of K2EDTA plasma. Spleen and liver tissue were homogenized in 19 parts of homogenization buffer (50:40:10 0.1% formic acid in 1:1 methanol:acetone/10 mM ammonium formate with 0.2% formic acid/dimethylformamide (DMF)) to 1 part tissue (v/w) using a Geno/Grinder® (SPEX® SamplePrep) set to two minutes at 1500 rpms.
Calibration curves and quality control samples were prepared by spiking control matrix (plasma or homogenate) with CICL1 or ALC-0315 in DMF. The extraction was performed on wet ice by adding 300 μL of crashing solvent (0.1% formic acid in 1:1 methanol:acetonitrile) to 25 μL of sample to which 50 μL of internal standard was added (1:1 isopropyl alcohol:water). The extracts were mixed for four minutes at 1500 rpms and then centrifuged at 3000×g for ten minutes. 200 μL of supernatant was transferred to a clean 96 well plate for LC/MS/MS analysis.
Chromatography was performed on a Waters XBridge BEH C8 column (130 Å, 2.5 μm, 2.1×30 mm) using the following gradient. Mobile phase A (10 mM ammonium format in water with 0.2% formic acid) was held at 20% for 0.3 minutes before being reduced to 5% over […]. This condition was held for one minute before being returned to 80% B (0.1% formic acid in 1:1 methanol:acetonitrile) in 0.1 minutes. The column was then held at 80% B for 1.4 minutes. LC flow rate was held at 0.5 mL/min and the autosampler held at 2-8° C. The mass spectrum was obtained with a triple quadrupole apparatus using atmospheric pressure ionization (Sciex).
Quantitation was performed using a 1/X2 quadratic regression using the peak area for transition 1013.6→968A (CICL1) or 766.6-748.4 (ALC-0315) over peak area of transition 1040.6→995.4 of the internal standard.

[3] = Tolerability in non-human primates: liver enzymes ALT and AST; format: in vivo; details: ionizable cationic lipid in F9 tLNP, second NHP study
Experimental: A second study was conducted with F9 tLNP to evaluate the tolerability and engineering efficiency of (1) a single administration of a CD5-targeted tLNP (humanized 5D7 targeting antibody) with an mRNA payload encoding an anti-CD19 CAR, (2) a single administration of a CD8-targeted tLNP (chimeric RPA-T8 targeting antibody) with an mRNA payload also encoding the anti-CD19 CAR, and (3) repeat administration (3 doses) of the CD5-targeted tLNP. The CD5-targeted tLNP was administered as a single dose at 3.0 mg/kg (Group 2, n=2) or as a repeat dose of 1.0 mg/kg at 72-hour intervals (Q72h) for three doses (Group 5, n=2). […] As a control, PBS was administered (Group 1, n=1). All tLNP tested in the second study utilized composition F9. […] Clinical observations, clinical pathology, and toxicology biomarkers were evaluated to assess safety and tolerability. Pharmacological assessment was carried out by flow cytometry detection of anti-CD19 CAR in immune cell subsets in peripheral blood and tissues (spleen, bone marrow, lymph node, and liver).
A third study in NHP with F9 tLNP targeted to C08 and encapsulating an mRNA encoding an anti-CD19 CAR was also conducted and the single dose liver enzyme results of all three studies (doses ranging from 3.5 to 3.0 mg mRNA/kg) compiled into single plots of AST and ALT levels for a more global assessment (FIG. 12K).

[4] = biological target: signal regulatory protein α (SIRPα) (Homo sapiens, UniProt P78324); details: cited from earlier work
Sequence of signal regulatory protein α (SIRPα) (P78324 31-504): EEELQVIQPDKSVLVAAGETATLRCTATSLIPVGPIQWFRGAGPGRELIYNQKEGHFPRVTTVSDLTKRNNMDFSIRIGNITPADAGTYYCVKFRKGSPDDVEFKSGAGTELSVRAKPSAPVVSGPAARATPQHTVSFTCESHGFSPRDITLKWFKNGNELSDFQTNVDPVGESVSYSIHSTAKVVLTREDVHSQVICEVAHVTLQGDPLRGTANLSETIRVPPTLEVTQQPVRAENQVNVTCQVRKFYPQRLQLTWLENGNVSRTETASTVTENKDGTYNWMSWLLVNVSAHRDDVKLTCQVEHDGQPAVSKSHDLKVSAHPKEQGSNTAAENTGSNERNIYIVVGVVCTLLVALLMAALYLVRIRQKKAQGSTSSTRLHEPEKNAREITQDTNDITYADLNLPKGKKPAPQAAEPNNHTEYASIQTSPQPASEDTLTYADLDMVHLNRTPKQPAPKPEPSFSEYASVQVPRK

CCCCCCCCC(CCCCCC)C(=O)OCCCCCCN(CCCCO)CCCCCCOC(=O)C(CCCCCC)CCCCCCCC (stereo not drawn) [ALC-0315, [(4-Hydroxybutyl)azanediyl)di(hexane-6,1-diyl) bis(2-hexyldecanoate), reference compound]
plasma levels of lipid at 7 days [1]: still detected
lipid levels in spleen and liver throughout the 7 days ([1]; FIGS. 13D-E): remained almost unchanged
concentration remaining in blood, fold greater (than CICL1) ([2]; 24 hours after 3 mg mRNA/kg tLNP, FIG. 13B): about 6 fold

CCCCCCCCC(=O)OCC(COC(=O)CCCCCCCC)CC(=O)OCCN(CCOC(=O)CC(COC(=O)CCCCCCCC)COC(=O)CCCCCCCC)C(=O)OCCN(C)C [CICL1]
plasma levels of lipid at 7 days [1]: returned to baseline
time after administration by which levels were falling in the spleen ([1]; FIG. 13D): ≤ 1 h
time after administration by which levels were falling in the liver ([1]; FIG. 13E): ≤ 2 h
tolerability [3]: well tolerated
concentrations in blood, liver, and spleen relative to each other ([2]; 24 hours): ≤ 2 fold
spleen concentration, fold less than for ALC-0315 ([2]; 24 hours): ~35 fold
amount of lipid present in blood, liver, and spleen ([2]; 24 hours after 3 mg mRNA/kg tLNP): only very small amounts
biodegradability compared with ALC-0315 ([2]; clearance data): much more biodegradable

NYTCEVTELSREGKTVIELK (SEQ ID NO: 3) [CD47 peptide]
binding affinity to SIRPα, fold stronger than full-length CD47 protein [4]: 10 fold
